Results on eight compounds are retold here after PubChem BioAssay (NCI).

Among the test systems are CAKI-1 renal; CCRF-CEM leukemia; DU-145 prostate; HCT-15 colon; HL-60(TB) leukemia; IGROV1 ovarian; K-562 leukemia; MDA-N; NCI-H226 lung; OVCAR-4 ovarian; PC-3 prostate; RXF 393 renal; SK-MEL-5 melanoma; SNB-19 CNS; SW-620 colon; TK-10 renal; U251 CNS; HCC-2998 colon; HOP-92 NSCLC; SR leukemia.
What all share (test): NCI tumour cell line growth inhibition, 48 h

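48-hour exposure; five concentrations; linearly interpolated endpoints. TGI denotes the concentration required for complete inhibition of growth.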

Regarding `Cc1ccc2c(=O)c(-c3nnsn3)c[nH]c2n1`, the TGI in the experiment on CAKI-1 renal, in the experiment on CCRF-CEM leukemia, with DU-145 prostate, with HCT-15 colon, in the experiment with HL-60(TB) leukemia and in the experiment with IGROV1 ovarian was greater than 100 µM each time. The TGI in the experiment with K-562 leukemia, in the experiment on MDA-N, in the experiment on NCI-H226 lung, in the experiment with OVCAR-4 ovarian, with PC-3 prostate and in the experiment with RXF 393 renal was greater than 100 µM in each case. The TGI in the experiment on SK-MEL-5 melanoma, with SNB-19 CNS, with SW-620 colon, in the experiment with TK-10 renal and in the experiment with U251 CNS was greater than 100 µM each time.

For the compound `Nc1nc(N)nc(-c2cnc3ccccc3c2)n1`, the TGI in the experiment on CAKI-1 renal was greater than 100 µM; in the experiment on CCRF-CEM leukemia, 65.9 µM; in the experiment on DU-145 prostate, greater than 100 µM; with HCC-2998 colon it was greater than 100 µM; with HCT-15 colon, greater than 100 µM; with HOP-92 NSCLC, greater than 100 µM. Further, the TGI in the experiment on IGROV1 ovarian, in the experiment on K-562 leukemia, in the experiment on MDA-N, in the experiment on NCI-H226 lung, in the experiment with PC-3 prostate and with RXF 393 renal was greater than 100 µM throughout. Also, the TGI in the experiment on SNB-19 CNS, in the experiment on SR leukemia, in the experiment with SW-620 colon, in the experiment on TK-10 renal and in the experiment on U251 CNS was greater than 100 µM each time.

Regarding `COc1cc(/C=C2/C[C@H]3[C@@H]4CCC5=CC(=O)CC[C@]5(C)[C@H]4CC[C@]3(C)NC2=O)cc(OC)c1OC`, the TGI in the experiment on CAKI-1 renal is greater than 100 µM; in the experiment with CCRF-CEM leukemia, 64.4 µM; with DU-145 prostate it was greater than 100 µM; in the experiment on HCC-2998 colon, greater than 100 µM; in the experiment with HCT-15 colon, greater than 100 µM; in the experiment on HL-60(TB) leukemia it was 45.3 µM. For the same compound, the TGI in the experiment on HOP-92 NSCLC was 39.6 µM; in the experiment on IGROV1 ovarian it was 94.7 µM; in the experiment with MDA-N it was greater than 100 µM; in the experiment with NCI-H226 lung it was greater than 100 µM; in the experiment with OVCAR-4 ovarian, greater than 100 µM; with PC-3 prostate it was greater than 100 µM. The TGI was 46.7 µM in the experiment on RXF 393 renal; 52.4 µM with SK-MEL-5 melanoma; greater than 100 µM in the experiment on SNB-19 CNS; greater than 100 µM in the experiment on SW-620 colon; 56.2 µM in the experiment on TK-10 renal; 57.1 µM in the experiment with U251 CNS.

With `Nc1ccc(-c2nc3cc(F)ccc3s2)cc1Br`, the TGI in the experiment on CAKI-1 renal was greater than 100 µM; in the experiment with CCRF-CEM leukemia, greater than 100 µM; in the experiment on DU-145 prostate it was greater than 100 µM; with HCC-2998 colon, 0.0345 µM; with HCT-15 colon, greater than 65.1 µM; with HL-60(TB) leukemia, greater than 100 µM. The TGI in the experiment on HOP-92 NSCLC is greater than 100 µM; in the experiment on IGROV1 ovarian, greater than 37.2 µM; in the experiment on K-562 leukemia it was greater than 100 µM; with MDA-N it was greater than 100 µM; with OVCAR-4 ovarian, greater than 100 µM; with PC-3 prostate, greater than 100 µM. In addition, the TGI in the experiment with RXF 393 renal was greater than 100 µM; in the experiment with SK-MEL-5 melanoma it was greater than 100 µM; with SNB-19 CNS it was greater than 100 µM; in the experiment with SW-620 colon, greater than 100 µM; in the experiment on U251 CNS it was 57.8 µM.

As for `Cc1cc(C)c2c(=O)n(CN3CCN(c4ccccc4)CC3)sc2n1`, the TGI with CAKI-1 renal was 39.4 µM; in the experiment on CCRF-CEM leukemia, greater than 100 µM; in the experiment on DU-145 prostate it was 63.3 µM; in the experiment on HCC-2998 colon, greater than 100 µM; in the experiment on HCT-15 colon, 50.7 µM; in the experiment with HL-60(TB) leukemia it was 41.5 µM. Further, the TGI in the experiment on HOP-92 NSCLC was greater than 100 µM; with IGROV1 ovarian, greater than 100 µM; in the experiment with K-562 leukemia it was greater than 100 µM; with MDA-N, 60.4 µM; in the experiment with NCI-H226 lung, greater than 100 µM; with OVCAR-4 ovarian, greater than 100 µM. Also, the TGI in the experiment with PC-3 prostate was 40.5 µM; with RXF 393 renal, 25.7 µM; with SK-MEL-5 melanoma, greater than 100 µM; in the experiment with SNB-19 CNS, greater than 100 µM; in the experiment on SW-620 colon it was greater than 100 µM; in the experiment with TK-10 renal, greater than 100 µM. The compound also yielded a TGI in the experiment on U251 CNS of 56.2 µM.

Consider `CC(=O)OC[C@@]12CC[C@H]3C(C)(C)CCC[C@]3(C)[C@H]1C[C@@H](C1=CC(=O)O[C@H]1O)O2`, for which the TGI worked out at 5.21 µM with CAKI-1 renal; 3.62 µM with CCRF-CEM leukemia; 20.4 µM with DU-145 prostate; 3.12 µM with HCC-2998 colon; 5.15 µM with HCT-15 colon; 5.78 µM in the experiment on IGROV1 ovarian. Moreover, the TGI with K-562 leukemia was 3.56 µM; with MDA-N, 5.53 µM; with PC-3 prostate, 17.4 µM; in the experiment on SK-MEL-5 melanoma it was 9.08 µM; in the experiment with SNB-19 CNS, 37.2 µM; in the experiment with SR leukemia, 4.08 µM. Further, the TGI in the experiment with SW-620 colon worked out at 19.9 µM; in the experiment with TK-10 renal, 12 µM.

Regarding `NS(=O)(=O)c1cc(S(N)(=O)=O)c(NC(=O)Nc2ccc(Cl)c(Cl)c2)c(Cl)c1Cl`, the TGI in the experiment on CAKI-1 renal, in the experiment on HCC-2998 colon, in the experiment with HCT-15 colon, with HOP-92 NSCLC, in the experiment on IGROV1 ovarian and with K-562 leukemia was greater than 100 µM in each case. Further, the TGI with MDA-N, in the experiment on NCI-H226 lung, with OVCAR-4 ovarian, in the experiment on PC-3 prostate, with SK-MEL-5 melanoma and with SNB-19 CNS was greater than 100 µM throughout. Moreover, the TGI in the experiment on SR leukemia, in the experiment with SW-620 colon, in the experiment on TK-10 renal and in the experiment with U251 CNS was greater than 100 µM in each case.

On to `CNC(=S)NNC1=NCCCN1`, for which the TGI with CAKI-1 renal, with CCRF-CEM leukemia, in the experiment with HCC-2998 colon, with HCT-15 colon, in the experiment on HL-60(TB) leukemia and in the experiment on HOP-92 NSCLC was greater than 100 µM in each case. Further, the TGI in the experiment on IGROV1 ovarian, with K-562 leukemia, with MDA-N, with NCI-H226 lung, in the experiment with OVCAR-4 ovarian and with PC-3 prostate was greater than 100 µM throughout. The TGI with RXF 393 renal, in the experiment on SK-MEL-5 melanoma, in the experiment with SNB-19 CNS, with SR leukemia, with SW-620 colon and in the experiment on TK-10 renal was greater than 100 µM throughout. This compound had a TGI with U251 CNS greater than 100 µM.
